# Experimental data published in ChEMBL document CHEMBL1909046, “DrugMatrix in vitro pharmacology data”.
# Tests used:
# [1] = DRUGMATRIX: GABAA, Flunitrazepam, Central radioligand binding (ligand: [3H] Flunitrazepam); type: cell membranes, Rattus norvegicus, Wistar, Brain, Membrane; settings: Not Active = under 50% inhibition at 10 µM
# [2] = biological target: 5-hydroxytryptamine receptor 6 (Homo sapiens, UniProt P50406); type: cell membranes, HeLa, Membrane; settings: hela; also: in other assays of this panel Not Active means under 50% inhibition at 10 µM
# [3] = biological target: Tyrosine-protein kinase Lck (Homo sapiens, UniProt P06239); test: DRUGMATRIX: Protein Tyrosine Kinase, LCK enzyme inhibition (substrate: Poly(Glu:Tyr)); type: cell-based, Insect cells; settings: insect cells; Not Active = under 50% inhibition at 10 µM
# [4] = biological target: T1, Neuropeptide Y receptor type 1 (Homo sapiens, UniProt P25929); type: cell membranes, Membrane; settings: sk-n-mc; also: in other assays of this panel Not Active means under 50% inhibition at 10 µM
# T1 sequence (P25929 whole entry): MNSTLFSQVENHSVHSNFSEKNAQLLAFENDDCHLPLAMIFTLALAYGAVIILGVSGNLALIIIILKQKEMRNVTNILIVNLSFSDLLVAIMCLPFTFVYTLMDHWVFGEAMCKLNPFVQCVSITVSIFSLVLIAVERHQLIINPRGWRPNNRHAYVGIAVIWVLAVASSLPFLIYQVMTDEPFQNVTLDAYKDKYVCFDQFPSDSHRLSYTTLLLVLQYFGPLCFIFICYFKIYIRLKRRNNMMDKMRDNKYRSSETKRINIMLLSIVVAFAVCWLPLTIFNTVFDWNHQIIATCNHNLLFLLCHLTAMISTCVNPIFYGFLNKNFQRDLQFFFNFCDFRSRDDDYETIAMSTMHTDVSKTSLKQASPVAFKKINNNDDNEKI
# [5] = biological target: T2, Endothelin-1 receptor (Homo sapiens, UniProt P25101); type: cell membranes, CHO-K1, Membrane; settings: cho-k1; also: in other assays of this panel Not Active means under 50% inhibition at 10 µM
# T2 sequence (P25101 whole entry): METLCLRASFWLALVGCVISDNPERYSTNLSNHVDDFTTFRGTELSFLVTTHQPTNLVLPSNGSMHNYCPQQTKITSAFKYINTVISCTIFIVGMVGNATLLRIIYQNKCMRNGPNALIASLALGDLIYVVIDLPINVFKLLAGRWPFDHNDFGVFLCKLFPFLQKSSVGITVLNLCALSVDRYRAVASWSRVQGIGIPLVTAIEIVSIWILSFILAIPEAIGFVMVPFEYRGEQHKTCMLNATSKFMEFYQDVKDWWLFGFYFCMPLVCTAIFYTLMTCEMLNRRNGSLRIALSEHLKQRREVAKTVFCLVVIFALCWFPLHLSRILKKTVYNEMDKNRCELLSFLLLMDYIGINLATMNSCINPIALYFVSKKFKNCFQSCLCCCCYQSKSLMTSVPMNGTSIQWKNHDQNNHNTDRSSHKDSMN
# [6] = biological target: T3, Type-2 angiotensin II receptor (Homo sapiens, UniProt P50052); type: cell-based; settings: cho-k1; also: in other assays of this panel Not Active means under 50% inhibition at 10 µM
# T3 sequence (P50052 whole entry): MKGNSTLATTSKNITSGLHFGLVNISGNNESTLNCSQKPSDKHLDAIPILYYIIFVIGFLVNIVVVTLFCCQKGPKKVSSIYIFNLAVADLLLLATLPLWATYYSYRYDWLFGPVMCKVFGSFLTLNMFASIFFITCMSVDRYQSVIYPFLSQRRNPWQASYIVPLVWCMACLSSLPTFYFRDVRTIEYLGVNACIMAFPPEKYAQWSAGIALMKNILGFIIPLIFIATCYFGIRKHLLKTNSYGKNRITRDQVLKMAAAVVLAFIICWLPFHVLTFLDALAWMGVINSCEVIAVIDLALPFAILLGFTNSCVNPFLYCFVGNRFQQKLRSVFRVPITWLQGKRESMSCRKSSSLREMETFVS
# Tyrosine-protein kinase Lck, sequence (P06239 whole entry): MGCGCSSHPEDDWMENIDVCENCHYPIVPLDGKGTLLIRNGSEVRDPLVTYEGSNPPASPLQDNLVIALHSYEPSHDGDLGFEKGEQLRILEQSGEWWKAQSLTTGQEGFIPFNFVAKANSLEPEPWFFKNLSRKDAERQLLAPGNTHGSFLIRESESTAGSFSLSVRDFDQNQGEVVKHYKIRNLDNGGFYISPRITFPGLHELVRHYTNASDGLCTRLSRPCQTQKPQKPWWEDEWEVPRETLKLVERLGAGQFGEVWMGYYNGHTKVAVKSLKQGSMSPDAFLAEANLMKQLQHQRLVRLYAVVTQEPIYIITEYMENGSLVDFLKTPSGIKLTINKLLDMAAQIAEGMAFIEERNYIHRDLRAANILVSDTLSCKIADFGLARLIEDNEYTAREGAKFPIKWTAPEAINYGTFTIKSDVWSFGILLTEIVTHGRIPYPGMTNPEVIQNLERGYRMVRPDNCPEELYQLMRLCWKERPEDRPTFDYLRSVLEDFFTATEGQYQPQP
# 5-hydroxytryptamine receptor 6, sequence (P50406 whole entry): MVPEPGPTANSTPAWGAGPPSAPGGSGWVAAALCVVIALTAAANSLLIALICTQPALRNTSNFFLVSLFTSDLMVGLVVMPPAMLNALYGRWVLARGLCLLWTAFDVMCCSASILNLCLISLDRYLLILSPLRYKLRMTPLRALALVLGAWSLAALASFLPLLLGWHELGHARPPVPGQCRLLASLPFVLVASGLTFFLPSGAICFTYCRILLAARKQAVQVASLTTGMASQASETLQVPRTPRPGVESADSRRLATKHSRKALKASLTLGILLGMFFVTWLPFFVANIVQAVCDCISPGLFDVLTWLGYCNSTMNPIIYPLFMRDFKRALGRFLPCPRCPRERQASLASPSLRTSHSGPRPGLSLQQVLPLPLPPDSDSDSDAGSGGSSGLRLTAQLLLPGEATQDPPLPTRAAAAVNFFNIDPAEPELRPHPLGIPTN
Compound,IC50 [1],Ki [1],IC50 [2],IC50 [3],IC50 [4],IC50 [5],IC50 [6],IC50 ([1]; read-out: IC50) [µM],Ki ([1]; read-out: Ki) [µM]
CCC[C@@H]1C[C@@H](C(=O)N[C@@H]([C@H]2O[C@H](SC)[C@H](O)[C@@H](O)[C@H]2O)[C@H](C)Cl)N(C)C1 [CLINDAMYCIN],Not Active,Not Active,Not Active,Not Active,Not Active,Not Active,Not Active,–,–
CN(Cc1cnc2nc(N)nc(N)c2n1)c1ccc(C(=O)N[C@@H](CCC(=O)O)C(=O)O)cc1 [METHOTREXATE],Not Active,Not Active,Not Active,Not Active,Not Active,Not Active,Not Active,–,–
CC(C(=O)O)c1ccc(CC2CCCC2=O)cc1 (stereo not drawn) [LOXOPROFEN],Not Active,Not Active,Not Active,Not Active,Not Active,Not Active,Not Active,–,–
C#C[C@]1(O)CC[C@H]2[C@@H]3CCc4cc(O)ccc4[C@H]3CC[C@@]21C [ETHINYL ESTRADIOL],Not Active,Not Active,Not Active,Not Active,Not Active,Not Active,Not Active,–,–
CC[C@H]1OC(=O)[C@H](C)[C@@H](O[C@H]2C[C@@](C)(OC)[C@@H](O)[C@H](C)O2)[C@H](C)[C@@H](O[C@@H]2O[C@H](C)C[C@H](N(C)C)[C@H]2O)[C@](C)(O)C[C@@H](C)CN(C)[C@H](C)[C@@H](O)[C@]1(C)O [AZITHROMYCIN],Not Active,Not Active,Not Active,Not Active,Not Active,Not Active,Not Active,–,–
NC(=O)N1c2ccccc2C=Cc2ccccc21 [CARBAMAZEPINE],Not Active,Not Active,Not Active,Not Active,Not Active,Not Active,Not Active,–,–
COc1ccc(Cc2nccc3cc(OC)c(OC)cc23)cc1OC [PAPAVERINE],Not Active,Not Active,Not Active,Not Active,Not Active,Not Active,Not Active,–,–
COc1ccccc1OCC(O)CO (stereo not drawn) [GUAIFENESIN],Not Active,Not Active,Not Active,Not Active,Not Active,Not Active,Not Active,–,–
[N-]=[N+]=CC(=O)OC[C@H](N)C(=O)O [AZASERINE],Not Active,Not Active,Not Active,Not Active,Not Active,Not Active,Not Active,–,–
C[C@H](C(=O)O)c1cccc(C(=O)c2ccccc2)c1 [DEXKETOPROFEN],Not Active,Not Active,Not Active,Not Active,Not Active,Not Active,Not Active,–,–
O=c1cc(-c2ccccc2)oc2ccc3ccccc3c12 [BETA-NAPHTHOFLAVONE],Not Active,Not Active,Not Active,Not Active,Not Active,Not Active,Not Active,–,–
CCn1cc(C(=O)O)c(=O)c2cc(F)c(N3CCNCC3)nc21 [ENOXACIN],Not Active,Not Active,Not Active,Not Active,Not Active,Not Active,Not Active,–,–
N=C(N)N/N=C/c1c(Cl)cccc1Cl [GUANABENZ],Not Active,Not Active,Not Active,Not Active,Not Active,Not Active,Not Active,–,–
C[C@]12CCC(=O)C=C1CC[C@@H]1[C@@H]2[C@@H](O)C[C@@]2(C)[C@H]1CC[C@]2(O)C(=O)CO [HYDROCORTISONE],Not Active,Not Active,Not Active,Not Active,Not Active,Not Active,Not Active,–,–
OCCO [ETHYLENE GLYCOL],Not Active,Not Active,Not Active,Not Active,Not Active,Not Active,Not Active,–,–
CC(=O)O[C@]1(C(C)=O)CC[C@H]2[C@@H]3C=C(C)C4=CC(=O)CC[C@]4(C)[C@H]3CC[C@@]21C [MEGESTROL ACETATE],Not Active,Not Active,Not Active,Not Active,Not Active,Not Active,Not Active,–,–
CC(=O)O[C@]1(C(C)=O)CC[C@H]2[C@@H]3C=C(Cl)C4=CC(=O)[C@@H]5C[C@@H]5[C@]4(C)[C@H]3CC[C@@]21C [CYPROTERONE ACETATE],Not Active,Not Active,Not Active,Not Active,Not Active,Not Active,Not Active,–,–
NC[C@@H]1O[C@H](O[C@H]2[C@@H](O)[C@H](O[C@@H]3[C@@H](O)[C@H](N)C[C@H](N)[C@H]3O[C@H]3O[C@H](CN)[C@@H](O)[C@H](O)[C@H]3N)O[C@@H]2CO)[C@H](N)[C@@H](O)[C@@H]1O [FRAMYCETIN],Not Active,Not Active,Not Active,Not Active,Not Active,Not Active,Not Active,–,–
O=C(O)c1cccnc1 [NIACIN],Not Active,Not Active,Not Active,Not Active,Not Active,Not Active,Not Active,–,–
COC(=O)c1ccccc1O [METHYL SALICYLATE],Not Active,Not Active,Not Active,Not Active,Not Active,Not Active,Not Active,–,–
CS(=O)(=O)OCCCCOS(C)(=O)=O [BUSULFAN],Not Active,Not Active,Not Active,Not Active,Not Active,Not Active,Not Active,–,–
CC(C)(CO)C(O)C(=O)NCCCO (stereo not drawn) [PANTHENOL],Not Active,Not Active,Not Active,Not Active,Not Active,Not Active,Not Active,–,–
O=C(O)c1cc(=O)c2c(OCC(O)COc3cccc4oc(C(=O)O)cc(=O)c34)cccc2o1 [CROMOLYN],Not Active,Not Active,Not Active,Not Active,Not Active,Not Active,Not Active,–,–
C#C[C@]1(O)CC[C@H]2[C@@H]3CCC4=Cc5oncc5C[C@]4(C)[C@H]3CC[C@@]21C [DANAZOL],–,–,Not Active,Not Active,Not Active,Not Active,Not Active,54.3,44.3
